Laboratory results: article PMC11149917, “Translational and Therapeutic Evaluation of RAS-GTP Inhibition by RMC-6236 in RAS-Driven Cancers” (Cancer Discovery, 2024)
Values joined by “and” are separate entries in the source; they are usually repeats but may differ in a detail not shown here. Identical values can stand only once. Like-named read-outs stand apart in the source and are kept apart here.

Experiment: Mouse blood and tissue PK (LC/MS-MS)
Format: in vivo
Settings: for AUC(0-t): read-out: Blood AUClast; for half-life: read-out: Blood t1/2 (converted); for concentration at 4 h: read-out: RMC-6236 (nM) Tumor
Protocol: For single-dose PKPD study, mice were randomized and assigned into groups (n = 3/dose/time point). […] Blood and tissues, including the tumor, brain, colon, ear skin, and muscle, were harvested at indicated time points. […] The whole blood, tumor, brain, colon, and ear skin concentrations of RMC-6236 were determined using liquid chromatography–tandem mass spectrometry (LC/MS-MS) methods. […] After thorough mixing and centrifugation, the supernatant was diluted with water or directly analyzed on a Sciex 5500 or Sciex 6500+ triple quadrupole mass spectrometer equipped with an ACQUITY or Shimadzu UPLC system. […] Bioanalysis on blood and tissue samples from xenograft models was run at Pharmaron and Wuxi AppTec. Concentrations reported as below the quantification limit were treated as zero for PK analysis. PK parameters were calculated by noncompartmental analysis of the concentration–time profiles using Phoenix WinNonLin (version 8.3 Certara). Apparent terminal elimination half-life (t1/2) values were calculated as ln(2)/k, where k represents the terminal elimination rate constant. Area under the concentration–time curve (AUC) values were estimated using a linear trapezoidal method. AUClast values were calculated from the dosing time to the last quantifiable concentration. Maximum concentration (Cmax) was recorded as observed.

[1] = Balb/c nude, mouse, whole blood, po, 25 mg/kg, LU99-luc IC (25 mg/kg), single dose
[2] = Balb/c nude, mouse, whole blood, sc, 25 mg/kg, LU99-luc SC (25 mg/kg), single dose
[3] = Capan-2 (10 mg/kg), single dose
[4] = Capan-2 (25 mg/kg), single dose
[5] = LU99-luc IC #2 (25 mg/kg), adjacent normal brain
[6] = LU99-luc IC #2 (25 mg/kg), intracranial tumor
[7] = LU99-luc IC (25 mg/kg), intracranial tumor
[8] = LU99-luc SC (25 mg/kg), subcutaneous xenograft tumor
[9] = NCI-H358 (25 mg/kg), single dose
[10] = NCI-H441 #2 (25 mg/kg), QD x 10 days
[11] = NCI-H441 (3 mg/kg), single dose
[12] = NCI-H441 (10 mg/kg), single dose
[13] = NCI-H441 (25 mg/kg), single dose

`CCn1c(-c2cc(N3CCN(C)CC3)cnc2[C@H](C)OC)c2c3cc(ccc31)-c1csc(n1)C[C@H](NC(=O)[C@H]1C[C@@H]1C)C(=O)N1CCC[C@H](N1)C(=O)OCC(C)(C)C2` [RMC-6236] showed an AUC(0-t) [1] of 16700 ng·h/mL, a half-life [1] of 229 min and a Cmax [2] of 1650 ng/mL. For the same molecule, the AUC(0-t) [2] was 18600 ng·h/mL, the half-life [2] was 188 min and the “Tumor AUClast” value (Capan-2 (3 mg/kg), single dose) was 5138 ng·h/mL. For the same molecule, the “Tumor Cmax” value (Capan-2 (3 mg/kg), single dose) was 218 ng/mL, the “Tumor AUClast” value [3] was 23425 ng·h/mL and the “Tumor Cmax” value [3] was 906 ng/mL. For the same molecule, the “Tumor AUClast” value [4] was 66696 ng·h/mL, the “Tumor Cmax” value [4] was 3000 ng/mL and the concentration at 4 h (Capan-2, study Capan-2 #3_PHA 2020, 0.3 mg/kg, 2h) was 21.6 nM and 12.8 nM. For the same molecule, the concentration at 4 h (Capan-2, study Capan-2 #3_PHA 2020, 0.3 mg/kg, 8h) was 15.8 nM and 20.9 nM, the concentration at 4 h (Capan-2, study Capan-2 #3_PHA 2020, 0.3 mg/kg, 24h) was 7.5 nM and 9 nM and the “RMC-6236 (nM) Tumor” value (Capan-2, study Capan-2 #3_PHA 2020, 0.3 mg/kg, 48h) was “BQL”. For the same molecule, the concentration at 4 h (Capan-2, study Capan-2 #3_PHA 2020, 3 mg/kg, 2h) was 206 nM and 213 nM, the concentration at 4 h (Capan-2, study Capan-2 #3_PHA 2020, 3 mg/kg, 8h) was 232 nM and 155 nM and the concentration at 4 h (Capan-2, study Capan-2 #3_PHA 2020, 3 mg/kg, 24h) was 93 nM and 106 nM. The concentration at 4 h (Capan-2, study Capan-2 #3_PHA 2020, 3 mg/kg, 48h) was 29 nM and 32 nM, the concentration at 4 h (Capan-2, study Capan-2 #3_PHA 2020, 10 mg/kg, 2h) was 735 nM and 868 nM and the concentration at 4 h (Capan-2, study Capan-2 #3_PHA 2020, 10 mg/kg, 8h) was 784 nM and 1189 nM. For the same molecule, the concentration at 4 h (Capan-2, study Capan-2 #3_PHA 2020, 10 mg/kg, 24h) was 388 nM and 425 nM, the concentration at 4 h (Capan-2, study Capan-2 #3_PHA 2020, 10 mg/kg, 48h) was 127 nM and 106 nM and the concentration at 4 h (Capan-2, study Capan-2 #3_PHA 2020, 25 mg/kg, 2h) was 1563 nM and 2949 nM. The concentration at 4 h (Capan-2, study Capan-2 #3_PHA 2020, 25 mg/kg, 8h) was 2249 nM and 3216 nM, the concentration at 4 h (Capan-2, study Capan-2 #3_PHA 2020, 25 mg/kg, 24h) was 1455 nM and 1672 nM and the concentration at 4 h (Capan-2, study Capan-2 #3_PHA 2020, 40 mg/kg, 2h) was 6510 nM and 4764 nM. The concentration at 4 h (Capan-2, study Capan-2 #3_PHA 2020, 40 mg/kg, 8h) was 4542 nM and 4547 nM, the concentration at 4 h (Capan-2, study Capan-2 #3_PHA 2020, 40 mg/kg, 24h) was 2254 nM and the concentration at 4 h (Capan-2, study Capan-2 #3_PHA 2023, 3 mg/kg, 2h) was 210.835 nM and 145.489 nM. The concentration at 4 h (Capan-2, study Capan-2 #3_PHA 2023, 3 mg/kg, 4h) was 272.483 nM and 245.358 nM, the concentration at 4 h (Capan-2, study Capan-2 #3_PHA 2023, 3 mg/kg, 8h) was 266.318 nM and 212.068 nM and the concentration at 4 h (Capan-2, study Capan-2 #3_PHA 2023, 3 mg/kg, 24h) was 131.926 nM and 103.198 nM. The concentration at 4 h (Capan-2, study Capan-2 #3_PHA 2023, 3 mg/kg, 48h) was 42.167 nM and 42.4136 nM, the concentration at 4 h (Capan-2, study Capan-2 #3_PHA 2023, 10 mg/kg, 2h) was 596.75 nM and 1028.28 nM and the concentration at 4 h (Capan-2, study Capan-2 #3_PHA 2023, 10 mg/kg, 4h) was 1166.37 nM and 954.307 nM. The concentration at 4 h (Capan-2, study Capan-2 #3_PHA 2023, 10 mg/kg, 8h) was 1105.96 nM and 773.062 nM, the concentration at 4 h (Capan-2, study Capan-2 #3_PHA 2023, 10 mg/kg, 24h) was 401.943 nM and 517.841 nM and the concentration at 4 h (Capan-2, study Capan-2 #3_PHA 2023, 10 mg/kg, 48h) was 125.761 nM and 157.818 nM. For the same molecule, the concentration at 4 h (Capan-2, study Capan-2 #3_PHA 2023, 25 mg/kg, 2h) was 1750.8 nM and 1824.77 nM, the concentration at 4 h (Capan-2, study Capan-2 #3_PHA 2023, 25 mg/kg, 4h) was 5030.45 nM and 3020.74 nM and the concentration at 4 h (Capan-2, study Capan-2 #3_PHA 2023, 25 mg/kg, 8h) was 2379.6 nM and 2700.17 nM. For the same molecule, the concentration at 4 h (Capan-2, study Capan-2 #3_PHA 2023, 25 mg/kg, 24h) was 1997.39 nM and 1442.56 nM, the concentration at 4 h (Capan-2, study Capan-2 #3_PHA 2023, 50 mg/kg, 2h) was 5178.41 nM and 4956.48 nM and the concentration at 4 h (Capan-2, study Capan-2 #3_PHA 2023, 50 mg/kg, 4h) was 6411.36 nM and 6731.93 nM. The concentration at 4 h (Capan-2, study Capan-2 #3_PHA 2023, 50 mg/kg, 8h) was 6251.08 nM and 3945.45 nM, the concentration at 4 h (Capan-2, study Capan-2 #3_PHA 2023, 50 mg/kg, 24h) was 2996.08 nM and 1775.45 nM and the concentration at 4 h (Capan-2, study Capan-2 #3_PHA 2023, 100 mg/kg, 2h) was 9025.23 nM and 8877.27 nM. For the same molecule, the concentration at 4 h (Capan-2, study Capan-2 #3_PHA 2023, 100 mg/kg, 4h) was 16521.6 nM and 11417.2 nM, the concentration at 4 h (Capan-2, study Capan-2 #3_PHA 2023, 100 mg/kg, 8h) was 14795.5 nM and 9185.51 nM and the concentration at 4 h (Capan-2, study Capan-2 #3_PHA 2023, 100 mg/kg, 24h) was 4216.7 nM and 3328.98 nM. For the same molecule, the concentration at 4 h (Capan-2, study Capan-2 #3_PHA 2023, 100 mg/kg, 48h) was 1124.45 nM and 1331.59 nM, the concentration at 4 h (HPAC #3, 50 mg/kg, 24h, individual animals, 50 mg/kg) was 3354 nM and the concentration at 4 h (HPAC #3, 50 mg/kg, 48h, individual animals, 50 mg/kg) was 1332 nM and 1603 nM. The concentration at 4 h (HPAC #4, 3 mg/kg, 4h, individual animals, 3 mg/kg) was 108 nM and 297 nM and 238 nM, the concentration at 4 h (HPAC #4, 3 mg/kg, 8h, individual animals, 3 mg/kg) was 335 nM and 387 nM and the concentration at 4 h (HPAC #4, 3 mg/kg, 24h, individual animals, 3 mg/kg) was 207 nM and 164 nM. The “RMC-6236 (nM) Tumor” value (HPAC #4, 3 mg/kg, 48h, individual animals) was “BQL”, the concentration at 4 h (HPAC #4, 3 mg/kg, 48h, individual animals, 3 mg/kg) was 29.3 nM and the concentration at 4 h (HPAC #4, 10 mg/kg, 4h, individual animals, 10 mg/kg) was 957 nM and 831 nM. The concentration at 4 h (HPAC #4, 10 mg/kg, 8h, individual animals, 10 mg/kg) was 1566 nM and 1418 nM, the concentration at 4 h (HPAC #4, 10 mg/kg, 24h, individual animals, 10 mg/kg) was 386 nM and 374 nM and the concentration at 4 h (HPAC #4, 10 mg/kg, 48h, individual animals, 10 mg/kg) was 210 nM and 212 nM. For the same molecule, the concentration at 4 h (HPAC #4, 25 mg/kg, 4h, individual animals, 25 mg/kg) was 2897 nM and 4130 nM, the “RMC-6236 (nM) Tumor” value (HPAC #11, 0.3 mg/kg, 4h, individual animals) was “BQL” and the “RMC-6236 (nM) Tumor” value (HPAC #11, 0.3 mg/kg, 8h, individual animals) was “BQL”. For the same molecule, the “RMC-6236 (nM) Tumor” value (HPAC #11, 0.3 mg/kg, 24h, individual animals) was “BQL”, the “RMC-6236 (nM) Tumor” value (HPAC #11, 0.3 mg/kg, 48h, individual animals) was “BQL” and the “RMC-6236 (nM) Tumor” value (HPAC #11, 1 mg/kg, 24h, individual animals) was “BQL”. The “RMC-6236 (nM) Tumor” value (HPAC #11, 1 mg/kg, 48h, individual animals) was “BQL”, the “Tumor AUClast” value (HPAC (25 mg/kg), single dose) was 79219 ng·h/mL and the “Tumor Cmax” value (HPAC (25 mg/kg), single dose) was 3007 ng/mL. For the same molecule, the “Tumor AUClast” value (KP-4 (25 mg/kg), single dose) was 79463 ng·h/mL, the “Tumor Cmax” value (KP-4 (25 mg/kg), single dose) was 3582 ng/mL and the “Brain AUClast” value [5] was 396 ng·h/mL. The “Brain Cmax” value [5] was 63.2 ng/mL, the “Tumor AUClast” value [6] was 2537 ng·h/mL and the “Tumor Cmax” value [6] was 139 ng/mL. The “Tumor AUClast” value [7] was 2004 ng·h/mL, the “Tumor Cmax” value [7] was 142 ng/mL and the “Tumor AUClast (h × ng/mL)” value [8] was 75128 #2 h × ng/mL. The “Tumor Cmax (ng/mL)” value [8] was 2367 #2 ng/mL, the “Tumor AUClast” value [9] was 51307 ng·h/mL and the “Tumor Cmax” value [9] was 3083 ng/mL. For the same molecule, the “Tumor AUClast” value [10] was 32762 ng·h/mL, the “Tumor Cmax” value [10] was 1527 ng/mL and the “Tumor AUClast” value [11] was 6321 ng·h/mL. The “Tumor Cmax” value [11] was 253 ng/mL, the “Tumor AUClast” value [12] was 17526 ng·h/mL and the “Tumor Cmax” value [12] was 821 ng/mL. For the same molecule, the “Tumor AUClast” value [13] was 55019 ng·h/mL, the “Tumor Cmax” value [13] was 2083 ng/mL and the “RMC-6236 (nM) Tumor” value (NCI-H441 xenograft tumor, study NCI-H441#10, 0.3 mg/kg, 48h) was “BQL”. The “RMC-6236 (nM) Tumor” value (NCI-H441 xenograft tumor, study NCI-H441#10, 1 mg/kg, 48h) was “BQL” and the “RMC-6236 (nM) Tumor” value (NCI-H441 xenograft tumor, study NCI-H441#13, 0.3 mg/kg, 24h) was “BQL”.
